Source: patent US8796001B2, “Metalloenzyme inhibitor compounds” (Viamet Pharmaceuticals, Inc., priority 2011, dated 2014)

tested on: Puccinia recondita tritici = Puccinia triticina (PUCCRT); experiment: Fungicidal activity vs. leaf rust on wheat plants; assay type: in vivo; conditions: wheat (Yuma) sprayed at 50 ppm, inoculated the following day, rated 7-9 days later, read-out: Puccinia Rating (% Disease Control @ 50 ppm)
Source text: D. Evaluation of Fungicidal Activity vs. Leaf Rust (Causal Agent Puccinia Recondita Tritici=Puccinia Triticina; Bayer Code PUCCRT)
Each pot contained 3-8 seedlings. These plants were sprayed until wet with the formulated test compounds. The compounds were formulated at 50 ppm in 10 vol. % acetone plus 90 vol. % Triton X water (deionized water 99.99 wt %+0.01 wt % Triton X100), giving a “formulated test compound.” Formulated test compounds were applied to plants using a turn table sprayer fitted with two opposing air atomization nozzles which delivered approximately 1500 L/ha of spray volume. On the following day, the leaves were inoculated with an aqueous spore suspension of Puccinia recondita tritici and the plants were kept in high humidity overnight to permit spores to germinate and infect the leaf. The plants were then transferred to a greenhouse until disease developed on untreated control plants. Disease severity was evaluated 7-9 days later, depending on the speed of disease development.
In each case of Table 3, the Puccinia rating scale is as follows: […]

Row | Structure (SMILES) | pest or weed control at 50 ppm [%]
1 | N#Cc1ccc(COc2ccc(C(F)(F)C(O)(Cn3cnnn3)c3ccc(F)cc3F)nc2)nc1 (stereo not drawn) [Compound 50, 6-(((6-(2-(2,4-Difluorophenyl)-1,1-difluoro-2-hydroxy-3-(1H-tetrazol-1-yl)propyl)pyridin-3-yl)oxy)methyl)nicotinonitrile] | 80 to 100
2 | N#Cc1cccc(COc2ccc(C(F)(F)C(O)(Cn3cnnn3)c3ccc(F)cc3F)nc2)c1 (stereo not drawn) [Compound 52, 3-(((6-(2-(2,4-Difluorophenyl)-1,1-difluoro-2-hydroxy-3-(1H-tetrazol-1-yl)propyl)pyridin-3-yl)oxy)methyl)benzonitrile] | 80 to 100
3 | OC(Cn1cnnn1)(c1ccc(Cl)cc1F)C(F)(F)c1ccc(OCC2CC2)cn1 (stereo not drawn) [Compound 54, 2-(4-Chloro-2-fluorophenyl)-1-(5-(cyclopropylmethoxy)pyridin-2-yl)-1,1-difluoro-3-(1H-tetrazol-1-yl)propan-2-ol] | 80 to 100
4 | N#Cc1ccc(COc2ccc(C(F)(F)C(O)(Cn3cnnn3)c3ccc(Cl)cc3F)nc2)cc1 (stereo not drawn) [Compound 55, 4-(((6-(2-(4-Chloro-2-fluorophenyl)-1,1-difluoro-2-hydroxy-3-(1H-tetrazol-1-yl)propyl)pyridin-3-yl)oxy)methyl)benzonitrile] | 80 to 100
5 | N#Cc1ccc(COc2ccc(C(F)(F)C(O)(Cn3cnnn3)c3ccc(F)cc3F)nc2)c(F)c1 (stereo not drawn) [Compound 57, 4-(((6-(2-(2,4-Difluorophenyl)-1,1-difluoro-2-hydroxy-3-(1H-tetrazol-1-yl)propyl)pyridin-3-yl)oxy)methyl)-3-fluorobenzonitrile] | 80 to 100
6 | N#Cc1ccc(F)c(COc2ccc(C(F)(F)C(O)(Cn3cnnn3)c3ccc(F)cc3F)nc2)c1 (stereo not drawn) [Compound 59, 3-(((6-(2-(2,4-Difluorophenyl)-1,1-difluoro-2-hydroxy-3-(1H-tetrazol-1-yl)propyl)pyridin-3-yl)oxy)methyl)-4-fluorobenzonitrile] | 80 to 100
7 | N#Cc1ccc(COc2ccc(C(F)(F)C(O)(Cn3cnnn3)c3ccc(Cl)cc3F)nc2)nc1 (stereo not drawn) [Compound 61, 6-(((6-(2-(4-Chloro-2-fluorophenyl)-1,1-difluoro-2-hydroxy-3-(1H-tetrazol-1-yl)propyl)pyridin-3-yl)oxy)methyl)nicotinonitrile] | 80 to 100
8 | N#Cc1cc(COc2ccc(C(F)(F)C(O)(Cn3cnnn3)c3ccc(F)cc3F)nc2)ccc1F (stereo not drawn) [Compound 65, 5-(((6-(2-(2,4-Difluorophenyl)-1,1-difluoro-2-hydroxy-3-(1H-tetrazol-1-yl)propyl)pyridin-3-yl)oxy)methyl)-2-fluorobenzonitrile] | 80 to 100
9 | N#Cc1cccc(COc2ccc(C(F)(F)C(O)(Cn3cnnn3)c3ccc(F)cc3F)nc2)c1F (stereo not drawn) [Compound 67, 3-(((6-(2-(2,4-Difluorophenyl)-1,1-difluoro-2-hydroxy-3-(1H-tetrazol-1-yl)propyl)pyridin-3-yl)oxy)methyl)-2-fluorobenzonitrile] | 80 to 100
10 | CC(C)COc1ccc(C(F)(F)C(O)(Cn2cnnn2)c2ccc(Cl)cc2F)nc1 (stereo not drawn) [Compound 69, 2-(4-Chloro-2-fluorophenyl)-1,1-difluoro-1-(5-isobutoxypyridin-2-yl)-3-(1H-tetrazol-1-yl)propan-2-ol] | 80 to 100
11 | OC(Cn1cnnn1)(c1ccc(Cl)cc1F)C(F)(F)c1ccc(OCC(F)(F)F)cn1 (stereo not drawn) [Compound 71, 2-(4-Chloro-2-fluorophenyl)-1,1-difluoro-3-(1H-tetrazol-1-yl)-1-(5-(2,2,2-trifluoroethoxy)pyridin-2-yl)propan-2-ol] | 80 to 100
12 | N#Cc1ccc(COc2ccc(C(F)(F)C(O)(Cn3cnnn3)c3ccc(F)cc3F)nc2)s1 (stereo not drawn) [Compound 73, 5-(((6-(2-(2,4-Difluorophenyl)-1,1-difluoro-2-hydroxy-3-(1H-tetrazol-1-yl)propyl)pyridin-3-yl)oxy)methyl)thiophene-2-carbonitrile] | 80 to 100
13 | OC(Cn1cnnn1)(c1ccc(F)cc1F)C(F)(F)c1ccc(Oc2ccc(C(F)(F)F)cc2)cn1 (stereo not drawn) [Compound 75, 2-(2,4-Difluorophenyl)-1,1-difluoro-3-(1H-tetrazol-1-yl)-1-(5-(4-(trifluoromethyl)phenoxy)pyridin-2-yl)propan-2-ol] | 80 to 100
14 | OC(Cn1cnnn1)(c1ccc(F)cc1F)C(F)(F)c1ccc(Oc2ccc(OC(F)(F)F)cc2)cn1 (stereo not drawn) [Compound 76, 2-(2,4-Difluorophenyl)-1,1-difluoro-3-(1H-tetrazol-1-yl)-1-(5-(4-(trifluoromethoxy)phenoxy)pyridin-2-yl)propan-2-ol] | 80 to 100
15 | OC(Cn1cnnn1)(c1ccc(F)cc1F)C(F)(F)c1ccc(Oc2cccc(F)c2)cn1 (stereo not drawn) [Compound 77, 2-(2,4-Difluorophenyl)-1,1-difluoro-1-(5-(3-fluorophenoxy)pyridin-2-yl)-3-(1H-tetrazol-1-yl)propan-2-ol] | 60 to 79
16 | N#Cc1cccc(Oc2ccc(C(F)(F)C(O)(Cn3cnnn3)c3ccc(F)cc3F)nc2)c1 (stereo not drawn) [Compound 78, 3-((6-(2-(2,4-Difluorophenyl)-1,1-difluoro-2-hydroxy-3-(1H-tetrazol-1-yl)propyl)pyridin-3-yl)oxy)benzonitrile] | 80 to 100
17 | N#Cc1ccc(Oc2ccc(C(F)(F)C(O)(Cn3cnnn3)c3ccc(Cl)cc3F)nc2)cc1 (stereo not drawn) [Compound 79, 4-((6-(2-(4-Chloro-2-fluorophenyl)-1,1-difluoro-2-hydroxy-3-(1H-tetrazol-1-yl)propyl)pyridin-3-yl)oxy)benzonitrile] | 80 to 100
18 | N#Cc1ccc(Oc2ccc(C(F)(F)C(O)(Cn3cnnn3)c3ccc(Cl)cc3F)nc2)cc1F (stereo not drawn) [Compound 81, 4-((6-(2-(4-Chloro-2-fluorophenyl)-1,1-difluoro-2-hydroxy-3-(1H-tetrazol-1-yl)propyl)pyridin-3-yl)oxy)-2-fluorobenzonitrile] | 80 to 100
19 | N#Cc1ccc(COc2ccc(C(F)(F)C(O)(Cn3ncnn3)c3ccc(F)cc3F)nc2)cc1 (stereo not drawn) [Compound 83, 4-(((6-(2-(2,4-Difluorophenyl)-1,1-difluoro-2-hydroxy-3-(2H-tetrazol-2-yl)propyl)pyridin-3-yl)oxy)methyl)benzonitrile] | 40 to 59
20 | OC(Cn1cnnn1)(c1ccc(F)cc1F)C(F)(F)c1ccc(Oc2cccc(Cl)c2)cn1 (stereo not drawn) [Compound 84, 1-(5-(3-Chlorophenoxy)pyridin-2-yl)-2-(2,4-difluorophenyl)-1,1-difluoro-3-(1H-tetrazol-1-yl)propan-2-ol] | 80 to 100
21 | COc1cccc(Oc2ccc(C(F)(F)C(O)(Cn3cnnn3)c3ccc(F)cc3F)nc2)c1 (stereo not drawn) [Compound 85, 2-(2,4-Difluorophenyl)-1,1-difluoro-1-(5-(3-methoxyphenoxy)pyridin-2-yl)-3-(1H-tetrazol-1-yl)propan-2-ol] | 80 to 100
22 | OC(Cn1cnnn1)(c1ccc(F)cc1F)C(F)(F)c1ccc(Oc2ccc(F)c(F)c2)cn1 (stereo not drawn) [Compound 86, 1-(5-(3,4-Difluorophenoxy)pyridin-2-yl)-2-(2,4-difluorophenyl)-1,1-difluoro-3-(1H-tetrazol-1-yl)propan-2-ol] | 80 to 100
23 | COc1ccc(Oc2ccc(C(F)(F)C(O)(Cn3cnnn3)c3ccc(F)cc3F)nc2)cc1 (stereo not drawn) [Compound 87, 2-(2,4-Difluorophenyl)-1,1-difluoro-1-(5-(4-methoxyphenoxy)pyridin-2-yl)-3-(1H-tetrazol-1-yl)propan-2-ol] | 80 to 100
24 | OC(Cn1cnnn1)(c1ccc(F)cc1F)C(F)(F)c1ccc(Oc2ccccc2F)cn1 (stereo not drawn) [Compound 88, 2-(2,4-Difluorophenyl)-1,1-difluoro-1-(5-(2-fluorophenoxy)pyridin-2-yl)-3-(1H-tetrazol-1-yl)propan-2-ol] | 80 to 100
25 | N#Cc1ccc(Oc2ccc(C(F)(F)C(O)(Cn3cnnn3)c3ccc(F)cc3F)nc2)c(F)c1 (stereo not drawn) [Compound 89, 4-((6-(2-(2,4-Difluorophenyl)-1,1-difluoro-2-hydroxy-3-(1H-tetrazol-1-yl)propyl)pyridin-3-yl)oxy)-3-fluorobenzonitrile] | 80 to 100
26 | OC(Cn1cnnn1)(c1ccc(F)cc1F)C(F)(F)c1ccc(Oc2ncc(C(F)(F)F)cc2Cl)cn1 (stereo not drawn) [Compound 92, 1-(5-((3-chloro-5-(trifluoromethyl)pyridin-2-yl)oxy)pyridin-2-yl)-2-(2,4-difluorophenyl)-1,1-difluoro-3-(1H-tetrazol-1-yl)propan-2-ol] | 80 to 100
27 | N#Cc1ccc(Oc2ccc(C(F)(F)C(O)(Cn3cnnn3)c3ccc(F)cc3F)nc2)nc1 (stereo not drawn) [Compound 93, 6-((6-(2-(2,4-difluorophenyl)-1,1-difluoro-2-hydroxy-3-(1H-tetrazol-1-yl)propyl)pyridin-3-yl)oxy)nicotinonitrile] | 80 to 100
28 | OC(Cn1cnnn1)(c1ccc(F)cc1F)C(F)(F)c1ccc(Oc2ccc(C(F)(F)F)cn2)cn1 (stereo not drawn) [Compound 94, 2-(2,4-difluorophenyl)-1,1-difluoro-3-(1H-tetrazol-1-yl)-1-(5-((5-(trifluoromethyl)pyridin-2-yl)oxy)pyridin-2-yl)propan-2-ol] | 80 to 100
29 | OC(Cn1cnnn1)(c1ccc(F)cc1F)C(F)(F)c1ccc(Oc2ccc(Cl)cn2)cn1 (stereo not drawn) [Compound 95, 1-(5-((5-chloropyridin-2-yl)oxy)pyridin-2-yl)-2-(2,4-difluorophenyl)-1,1-difluoro-3-(1H-tetrazol-1-yl)propan-2-ol] | 80 to 100
30 | N#Cc1cc(Oc2ccc(C(F)(F)C(O)(Cn3cnnn3)c3ccc(F)cc3F)nc2)ccn1 (stereo not drawn) [Compound 96, 4-((6-(2-(2,4-difluorophenyl)-1,1-difluoro-2-hydroxy-3-(1H-tetrazol-1-yl)propyl)pyridin-3-yl)oxy)picolinonitrile] | 60 to 79
